{
  "source": "patent US8951527B2",
  "about": "“Radioprotectants targeting thrombospondin-1 and CD47” (The United States of America, as represented by the …, priority 2008, dated 2015)",
  "key": {"[1]": {"system": "HUVEC", "test": "HUVEC proliferation post-radiation (BrdU incorporation)", "type": "cell-based, human", "details": "treated 48 hours before 10 Gy, over 1 week (FIG. 14)", "protocol": "FIG. 14. TSP1 and CD47 antibodies or antisense suppression of CD47 maintain proliferation of irradiated HUVEC. HUVEC were plated in 96-well plates in growth medium and treated with CD47 morpholino (FIG. 14A; *p<0.05, #p<0.01) TSP1, or CD47 antibodies (FIG. 14B; *p<0.05, #p<0.01) and exposed to 10 Gy irradiation 48 hours later. Cell proliferation at the indicated times post-radiation was determined by intracellular BrdU incorporation. Experiments were repeated 3 times, and results presented as the mean±SD.\nFIG. 15. HUVEC protected by radioprotective agents are both viable and proliferate at a better rate than untreated cells in culture. Proliferation was assessed by quantifying incorporation of bromodeoxyuridine (BrdU) into newly synthesized DNA using a BrdU Cell Proliferation Assay. HUVEC were seeded into 96 well plates for 24 hours at 37° C., then treated with either antibody A6.1 or B6H12 or peptide 7N3. The treated cells were irradiated at 40 Gy 1 hour later. Control and irradiated plates were assayed for BrdU uptake over 96 hours post-radiation. The assay was performed according to the manufacturer's protocol, and the plates were read at 420 nm.\nCell proliferation assay: Proliferation was assessed by quantifying incorporation of bromodeoxyuridine (BrdU) into newly synthesized DNA using a BrdU Cell Proliferation Assay (Calbiochem, La Jolla, Calif.). Primary murine wild type, TSP1, TSP2, and CD47 null lung endothelial cells were seeded into 96 well plates at 5×10^4 cells/well density. After 24 hours incubation at 37° C. treatment groups were irradiated at 40 Gy. Control and irradiated plates were assayed for BrdU uptake over 24 hours starting at 48 to 168 hours post-radiation. The assay was performed according to the manufacturer's protocol, and the plates were read at 420 nm.\nProliferative capacities were also determined in endothelial cells exposed to high doses of radiation of 40 Gy. […] The assay was performed according to the manufacturer's protocol, and the plates were read at 420 nm."}, "[2]": {"system": "HUVEC", "test": "HUVEC cell viability after irradiation (MTT / CellTiter 96)", "type": "cell-based, human", "protocol": "FIG. 11. Radioprotective activities of TSP1 and CD47 antibodies, a CD47 binding peptide from TSP1, and a CD47 morpholino. HUVEC were plated on 96-well plates in standard growth medium. Cells were treated with TSP1 (FIG. 11A) or CD47 (FIG. 11B) monoclonal antibodies (clone A6.1 or B6H12, respectively) and received the indicated doses of radiation 24 hours after addition of the antibodies. Cell (mitochondrial) viability was measured 48 hours post irradiation using an MTT assay. Cells were treated using peptide 7N3 (FIG. 11C) and control peptide 604 (FIG. 11D), subjected to the same experimental conditions, and assayed via MTT. […] Experiments were repeated 3 times and results presented as the mean±SD.\n(§1) FIG. 12. Peptides 7N3 and C6d are radioprotective to HUVEC in culture. Human umbilical vein endothelial cells (HUVEC) grown in EGM medium in 96-well plates were treated with graded doses of a peptide agent, as indicated. One hour later, cells were exposed to a single dose of gamma radiation (0, 10, 20, 30, and 40 Gray) and allowed to incubate 72 hours at 37° C. Cell viability was determined with the CellTiter 96 AQueous One Solution Cell Proliferation Assay.\nCell Viability Assay. HUVEC were plated at a density of 5000 cells/well in 96 well plates (Nunc), and were treated 24 hours later with either the indicated doses of a CD47 antibody (B6H12), a TSP1 antibody (A6.1), the CD47-binding peptide 7N3, or control peptide 604. One hour later the cells were exposed to a single dose of gamma radiation (0, 10, 20, 30, and 40 Gy) and allowed to incubate another 72 hours at 37° C. Experiments done with B16E10 melanoma cells in Example 4 were done in a similar manner treating either 1 hour prior to a single dose of radiation (10 Gy) with peptide 7N3 or 48 hours prior with CD47 morpholino. Cell viability was determined using the CellTiter 96 Aqueous One Solution cell proliferation assay (Promega, Madison, Wis.) as per the manufacturer's instructions and absorbance at 490 nm was determined using an MR580 Microelisa AutoReader (Dynatech, Alexandria, Va.). The same assay was performed on HUVEC using either the CD47 or CD36 morpholino, but 48 hours were allowed to pass prior to radiation (0 or 40 Gy) to allow for suppression of the target proteins. Similarly, control experiments were performed using the nitric oxide synthase (NOS) inhibitor L-NAME, a membrane permeable cGMP analogue, 8-Bromo cGMP, or the NO donor DETA/NO.\nas §1, with “In an additional experiment to test the effect of” for “FIG. 12. Peptides 7N3 and C6d are”, “peptides, human” for “to HUVEC in culture. Human”"}},
  "note": "“Also recorded” adds a separate entry of the source.",
  "data": [
    {"sequence": "CGTCACAGGCAGGACCCACTGCCCA (all phosphorodiamidate morpholino (PMO)) [CD47 morpholino, CD47 targeting morpholino oligonucleotide]", "values": [
      {"measurement": "proliferation (BrdU incorporation / DNA synthesis) after 10 Gy", "setting": "[1]", "result": "maintained proliferation"},
      {"measurement": "cell survival of irradiated HUVEC with L-NAME co-incubation", "setting": "[2]; co-incubation of L-NAME and CD47 morpholino ± radiation (FIG. 22C)", "result": "enhancing cell survival"},
      {"measurement": "cell viability post radiation after morpholino pretreatment", "setting": "[2]; morpholino 48 hours before radiation (FIG. 11E, F)", "result": "granted protection against cell death; also recorded: resistant to radiation-driven cell death"}
    ]}
  ]
}
